System: TPA induction of neutrophil MPO activity
Assay: Systemic effect: MPO activity in contralateral vehicle-treated ear after topical application (TPA model)
Description: These include dexamethasone, a steroid, and indomethasone, a non-steroid anti-inflammatory drug, which targets cycloxygenases.

effect on MPO activity of contralateral vehicle-treated ear (systemic effect) (mouse, in vivo)	SMILES	effect on MPO activity of contralateral vehicle-treated ear (systemic effect) (topical, increasing concentration)
increasing inhibition of MPO activity	C[C@@H]1C[C@H]2[C@@H]3CCC4=CC(=O)C=C[C@]4(C)[C@@]3(F)[C@@H](O)C[C@]2(C)[C@@]1(O)C(=O)CO [dexamethasone]	
	COc1ccc2c(c1)c(CC(=O)O)c(C)n2C(=O)c1ccc(Cl)cc1 [indomethasone]	increasing inhibition of MPO activity

From patent publication US9629847B2, “Compositions and methods for treating symptoms of inflammatory related conditions using a combination of an antihistamine and a stimulant” (priority 2011, dated 2017)
